Key:
rat adipocytes = conditions: amine in combination with low concentrations of vanadate; cited from earlier work
[1] = system: streptozotocin-induced diabetic rats; assay: Subcutaneous chronic administration, plasma triglyceride and free fatty acids in diabetic rats; format: in vivo, rat; conditions: subcutaneously infused for 28 days; B6V10 1.25 or 2.5 μmol/kg/day, V10 1.25 μmol/kg/day; streptozotocin (100 mg/kg) diabetic rats
Source text: FIG. 2A though 2D are bar graphs showing plasma concentrations of insulin (FIG. 2A), glucose (FIG. 2B), free fatty acids (FIG. 2C) and triglycerides (FIG. 2D) measured in nondiabetic rats (C), streptozotocin-induced diabetic rats (Diab) or diabetic rats treated for 28 days with subcutaneously infused decanadate (V10, 1.25 μmol/kg/day) or hexaquis(benzylammonium) decavanadate (B6V10) at two different doses (1.25 μmol/kg/day or 2.5 μmol/kg/day). * indicates the existance of statistically significant differences from the Diab group at p<0.05.
Subcutaneous administration of hexaquis(benzylammonium) decavanadate was tested to determine whether it ameliorated the dyslipidemia associated with diabetes. Diabetes was induced in rats by intravenous administration of a large dose of streptozotocin (100 mg/kg), causing a complete disappearance of plasma insulin and very high concentrations of plasma glucose (FIGS. 2A and 2B). Induction of diabetes was also associated with substantial increases in plasma free fatty acid and triglyceride concentrations compared to nondiabetic rats (FIGS. 2C and 2D). Under these conditions, subcutaneous treatment with different doses of hexaquis(benzylammonium) decavanadate normalized plasma concentrations of free fatty acids and triglycerides so that no differences between control and hexaquis(benzylammonium) decavanadate-treated rats were detectable (FIGS. 2C and 2D).

[2] = system: streptozotocin-induced diabetic rats; assay: Subcutaneous chronic administration, plasma cholesterol in diabetic rats; format: in vivo, rat; conditions: subcutaneously infused for 28 days; B6V10 1.25 or 2.5 μmol/kg/day, V10 1.25 μmol/kg/day; streptozotocin (100 mg/kg) diabetic rats
Source text: FIG. 3A through 3D show plasma concentrations of total cholesterol (FIG. 3A), nonesterified cholesterol (FIG. 3B), esterified cholesterol (FIG. 3C) and HDL-cholesterol (FIG. 3D) measured in nondiabetic rats (C), streptozotocin-induced diabetic rats (Diab) or diabetic rats treated for 28 days with subcutaneously infused decanadate (V10, 1.25 μmol/kg/day) or hexaquis(benzylammonium) decavanadate (B6V10) at two different doses (1.25 μmol/kg/day or 2.5 μmol/kg/day). * indicates the existance of statistically significant differences from the Diab group at p<0.05.
Subcutaneous administration of hexaquis(benzylammonium) decavanadate was performed to determine the effect on altered plasma concentrations of cholesterol associated to diabetes. Diabetes was induced in rats by intravenous administration of a large dose of streptozotocin (100 mg/kg). Experimentally-induced Diabetes was associated with substantial increases in total plasma cholesterol and nonesterified cholesterol and a reduction in esterified cholesterol concentrations compared to nondiabetic rats (FIG. 3A). HDL-cholesterol concentrations were unaltered by diabetes […]. Under these conditions, subcutaneous treatment with different doses of hexaquis(benzylammonium) decavanadate reduced plasma concentrations of total cholesterol and nonesterified cholesterol and increased esterified cholesterol concentrations so no differences between control and hexaquis(benzylammonium) decavanadate-treated rats were detectable (FIG. 3C).

[3] = system: streptozotocin-induced diabetic rats; assay: Oral chronic administration, plasma cholesterol in diabetic rats; format: in vivo, rat; conditions: single daily oral dose for 17 days, 5 μmol/kg/day day 0-7 and 10 μmol/kg/day day 8-17
Source text: FIG. 1 is a bar graph of the plasma concentration of cholesterol (Ch) (expressed in mmol/L) measured in nondiabetic rats (C), streptozotocin-induced diabetic rats (D) or diabetic rats treated for 17 days with a single daily oral dose of hexaquis(benzylammonium) decavanadate (5 μmol/kg/day between day 0 and day 7 and 10 μmol/kg/day from day 8 to day 17 of treatment) (BV). Cholesterol concentrations in the D group were statistically significant from the C group at p<0.05.
Oral administration of hexaquis(benzylammonium) decavanadate was tested to determine whether it ameliorated dyslipidemia associated to diabetes. Diabetes was induced in rats by intravenous administration of streptozotocin, causing a substantial increase in plasma cholesterol concentrations compared to nondiabetic rats (FIG. 1).

NCc1ccccc1 [benzylamine]
glucose transport (rat adipocytes): stimulates glucose transport

[O]=[V]([O-])([O-])[O][V]1(=[O])[O][V]2(=[O])[O][V](=[O])([O][V](=[O])([O-])[O-])[O][V](=[O])([O]2)[O][V]2(=[O])[O][V](=[O])([O][V](=[O])([O-])[O-])[O][V](=[O])([O]1)[O]2 (stereo not shown) [decavanadate, reference compound]
plasma concentration of free fatty acids [1]: did not alter | plasma concentration of triglycerides [1]: did not alter | plasma concentration of esterified cholesterol [2]: not significantly different | plasma concentration of nonesterified cholesterol [2]: not significantly different | plasma concentration of total cholesterol [2]: significant reduction

NCCc1ccc(O)cc1 [tyramine]
glucose transport (rat adipocytes): stimulates glucose transport

hexaquis(benzylammonium) decavanadate
plasma concentration of free fatty acids [1]: normalized | plasma concentration of triglycerides [1]: normalized | plasma concentration of esterified cholesterol [2]: increased | plasma concentration of nonesterified cholesterol [2]: reduced | plasma concentration of total cholesterol [2]: reduced | plasma cholesterol levels [3]: substantially reduced

Reference: patent US20060165814A1, “Amines, combination of amines and vanadium and amine vanadium salts for the treatment or prevention of dyslipidemia” (Genmedica Therapeutics SL, priority 2004, published 2006)
